# “And” between values parts separate entries of the source, which are not always exact repeats. Equal values may be shown once.
# Legend:
# Phakopsora pachyrhizi [1] = experiment: Glasshouse pot trial: efficacy on soybean rust on soybean (Glycine max), visual estimation of degree of infection on leaves; format: in vivo
# Method: (§1) In the tables presented below, the following terms have the following meaning:
# Glasshouse pot trials were conducted to evaluate the effect and efficacy of silthiofam on soybean rust disease on soybean (Glycine max).
# The trial was divided in 11 treatments. In 4 of the treatments, silthiofam was applied in different amounts.
# (§2) Silthiofam compositions used in this trial were prepared from the suspension concentrate containing 125 g/L of silthiofam, diluted with water to predetermined concentration and sprayed on the plants in the predetermined amounts.
# In two of the treatments, silthiofam was applied in combination with additional ingredients.
# First combination was of silthiofam and chitosan, wherein silthiofam was applied in an amount of 250 g/ha on the plant first and chitosan was applied subsequently in an amount of 200 g/ha.
# Second combination was a combination of silthiofam and tagatose, wherein silthiofam was applied in an amount of 250 g/ha simultaneously with tagatose in an amount of 200 g/ha.
# Further 6 treatments were current market available treatments of soybean rust applied in the label prescribed dose, wherein the compositions used were prepared from commercially available products prepared according to the respective label instructions and sprayed on the plants.
# One treatment of the trial consisted of fungi inoculated plants which received no treatment.
# Soybean plants were treated two times with silthiofam and other treatments. First treatment was applied when soybean plants reached stage BBCH16 and the second treatment was applied when soybean plants reached stage BBCH61. Growth stages were defined according to Compendium of Growth Stage Identification Keys for Mono- and Dicotyledonous Plants, Extended BBCH scale, 2nd Edition 1997, ISBN 3-9520749-3-4.
# After silthiofam and other treatments were applied first time, plants were inoculated with Phakopsora pachyrhizi spores and evaluation of leaves condition and disease spread was done every 7 days.
# (§3) Method used for evaluation of disease spread was visual estimation of degree of infection on leaves.
# The experimental design of the pot trial was randomized design with 4 pot replications per treatment applied, wherein six soybean plants were planted per pot.
# Treatments were the following:
# Treatment 1: Plant inoculated with P. pachyrhizi, no treatment applied
# Treatment 2: Treatment with flutriafol and azoxystrobin mixture, applied in concentration of 31.25 g flutriafol/ha and 37.5 g azoxystrobin/ha
# Treatment 3: Silthiofam treatment applied in 250 g silthiofam/ha
# Treatment 4: Silthiofam treatment applied in 500 g silthiofam/ha
# Treatment 5: Silthiofam treatment applied in 250 g silthiofam/ha and 200 g/ha of tagatose
# Treatment 6: Silthiofam treatment applied in 250 g silthiofam/ha and 200 g/ha of chitosan
# Treatment 7: Mancozeb applied in 1.68 kg mancozeb/ha
# Treatment 8: Chlorothalonil applied in 626.4 g chlorothalonil/ha
# Treatment 9: Azoxystrobin applied in 37.5 g azoxystrobin/ha
# Treatment 10: Boscalid applied in 294 g boscalid/ha
# Treatment 11: Prothioconazole and tebuconazole mixture applied as 42 g prothioconazole/ha and 84 g tebuconazole/ha
# Phakopsora pachyrhizi [2] = experiment: as above; format: in vivo; conditions: general statement; Phakopsora pachyrhizi and P. meibomiae
# soybean rust disease = experiment: Field trial: efficacy on naturally infected soybean, visual estimation of degree of infection on leaves; format: in vivo, Glycine max
# Method: as §1
# Field trial was conducted to evaluate the effect and efficacy of silthiofam on soybean rust disease on soybean (Glycine max) wherein plants were naturally infected by the disease.
# The trial was divided in the following […]:
# one treatment where plants were left untreated and in which natural progression of the disease can be observed;
# two treatments with silthiofam alone in different dosage amounts;
# and four treatments where silthiofam was applied with other compounds, namely tagatose and chitosan in different dosage ratios.
# Each treatment was applied on a plot of 6 ft*30 ft in size and was repeated in 4 replicates.
# as §2
# For each treatment, two applications of respective treatment were made with 19 days interval between. First application was made when soybean plant reached stage BBCH 64, and the second one when plant reached stage BBCH 73. Growth stages were defined according to Compendium of Growth Stage Identification Keys for Mono- and Dicotyledonous Plants, Extended BBCH scale, 2nd Edition 1997, ISBN 3-9520749-3-4.
# as §3
smiles,measurement,setting,value
"C=CCNC(=O)c1c([Si](C)(C)C)sc(C)c1C [Silthiofam, N-allyl-4,5-dimethyl-2-(trimethylsilyl)thiophene-3-carboxamide]",% efficacy,"Phakopsora pachyrhizi [1]; silthiofam 250 g/ha, 7/7 d after first/last application, 19 d after planting, LEALOW",71.5% and 90.9% and 93.6% and 88.9%
same,% efficacy,"Phakopsora pachyrhizi [1]; silthiofam 250 g/ha, 7/7 d after first/last application, 19 d after planting, LEAMID",93.4% and 100.0% and 81.9% and 85.0%
same,% efficacy,"Phakopsora pachyrhizi [1]; silthiofam 250 g/ha, 7/7 d after first/last application, 19 d after planting, LEAUPP",100.0%
same,% efficacy,"Phakopsora pachyrhizi [1]; silthiofam 250 g/ha, 14/14 d after first/last application, 26 d after planting, LEALOW",89.0% and 82.0% and 84.7% and 84.1%
same,% efficacy,"Phakopsora pachyrhizi [1]; silthiofam 250 g/ha, 14/14 d after first/last application, 26 d after planting, LEAMID",95.0% and 91.2% and 92.0% and 89.4%
same,% efficacy,"Phakopsora pachyrhizi [1]; silthiofam 250 g/ha, 14/14 d after first/last application, 26 d after planting, LEAUPP",100.0%
same,% efficacy,"Phakopsora pachyrhizi [1]; silthiofam 250 g/ha, 21/21 d after first/last application, 33 d after planting, LEALOW",78.0% and 76.0% and 82.0% and 80.0%
same,% efficacy,"Phakopsora pachyrhizi [1]; silthiofam 250 g/ha, 21/21 d after first/last application, 33 d after planting, LEAMID",92.0% and 89.0% and 90.0% and 88.0%
same,% efficacy,"Phakopsora pachyrhizi [1]; silthiofam 250 g/ha, 21/21 d after first/last application, 33 d after planting, LEAUPP",100.0%
same,% efficacy,"Phakopsora pachyrhizi [1]; silthiofam 250 g/ha, 28/7 d after first/last application, 40 d after planting, LEALOW",82.0% and 80.0% and 84.0%
same,% efficacy,"Phakopsora pachyrhizi [1]; silthiofam 250 g/ha, 28/7 d after first/last application, 40 d after planting, LEAMID",92.0% and 88.0% and 90.0%
same,% efficacy,"Phakopsora pachyrhizi [1]; silthiofam 250 g/ha, 28/7 d after first/last application, 40 d after planting, LEAUPP",100.0%
same,% efficacy,"Phakopsora pachyrhizi [1]; silthiofam 250 g/ha, 35/14 d after first/last application, 47 d after planting, LEAMID",78.0% and 82.0% and 80.0% and 84.0%
same,% efficacy,"Phakopsora pachyrhizi [1]; silthiofam 250 g/ha, 35/14 d after first/last application, 47 d after planting, LEAUPP",94.5% and 98.0% and 95.5% and 92.9%
same,% efficacy,"Phakopsora pachyrhizi [1]; silthiofam 250 g/ha, 42/21 d after first/last application, 54 d after planting, LEAMID",48.0% and 54.0% and 59.0% and 52.0%
same,% efficacy,"Phakopsora pachyrhizi [1]; silthiofam 250 g/ha, 42/21 d after first/last application, 54 d after planting, LEAUPP",86.0% and 85.0% and 89.0%
same,% efficacy,"Phakopsora pachyrhizi [1]; silthiofam 500 g/ha, 7/7 d after first/last application, 19 d after planting, LEALOW",85.8% and 95.5% and 93.6% and 97.3%
same,% efficacy,"Phakopsora pachyrhizi [1]; silthiofam 500 g/ha, 7/7 d after first/last application, 19 d after planting, LEAMID",93.4% and 94.5% and 100.0%
same,% efficacy,"Phakopsora pachyrhizi [1]; silthiofam 500 g/ha, 7/7 d after first/last application, 19 d after planting, LEAUPP",100.0%
same,% efficacy,"Phakopsora pachyrhizi [1]; silthiofam 500 g/ha, 14/14 d after first/last application, 26 d after planting, LEALOW",92.0% and 90.0% and 94.7% and 91.9%
same,% efficacy,"Phakopsora pachyrhizi [1]; silthiofam 500 g/ha, 14/14 d after first/last application, 26 d after planting, LEAMID",99.0% and 96.8% and 97.9%
same,% efficacy,"Phakopsora pachyrhizi [1]; silthiofam 500 g/ha, 14/14 d after first/last application, 26 d after planting, LEAUPP",100.0%
same,% efficacy,"Phakopsora pachyrhizi [1]; silthiofam 500 g/ha, 21/21 d after first/last application, 33 d after planting, LEALOW",89.0% and 86.0% and 92.0%
same,% efficacy,"Phakopsora pachyrhizi [1]; silthiofam 500 g/ha, 21/21 d after first/last application, 33 d after planting, LEAMID",96.0% and 95.0% and 97.0%
same,% efficacy,"Phakopsora pachyrhizi [1]; silthiofam 500 g/ha, 21/21 d after first/last application, 33 d after planting, LEAUPP",100.0%
same,% efficacy,"Phakopsora pachyrhizi [1]; silthiofam 500 g/ha, 28/7 d after first/last application, 40 d after planting, LEALOW",88.0% and 90.0% and 85.0%
same,% efficacy,"Phakopsora pachyrhizi [1]; silthiofam 500 g/ha, 28/7 d after first/last application, 40 d after planting, LEAMID",95.0% and 93.0% and 92.0%
same,% efficacy,"Phakopsora pachyrhizi [1]; silthiofam 500 g/ha, 28/7 d after first/last application, 40 d after planting, LEAUPP",100.0%
same,% efficacy,"Phakopsora pachyrhizi [1]; silthiofam 500 g/ha, 35/14 d after first/last application, 47 d after planting, LEAMID",92.0% and 89.0% and 90.0% and 86.0%
same,% efficacy,"Phakopsora pachyrhizi [1]; silthiofam 500 g/ha, 35/14 d after first/last application, 47 d after planting, LEAUPP",98.9% and 100.0% and 90.9%
same,% efficacy,"Phakopsora pachyrhizi [1]; silthiofam 500 g/ha, 42/21 d after first/last application, 54 d after planting, LEAMID",79.0% and 72.0% and 80.0% and 82.0%
same,% efficacy,"Phakopsora pachyrhizi [1]; silthiofam 500 g/ha, 42/21 d after first/last application, 54 d after planting, LEAUPP",92.0% and 90.0% and 95.0% and 93.0%
same,activity against soybean rust causing fungi,Phakopsora pachyrhizi [2],high activity
same,% efficacy,"soybean rust disease; silthiofam 125 g/ha, 14/14 d after first/last application, LEALOW",88.9% and 84.3% and 63.4% and 77.3%
same,% efficacy,"soybean rust disease; silthiofam 125 g/ha, 14/14 d after first/last application, LEAMID",95.5% and 92.9% and 95.0% and 90.9%
same,% efficacy,"soybean rust disease; silthiofam 125 g/ha, 14/14 d after first/last application, LEAUPP",0.0%
same,% efficacy,"soybean rust disease; silthiofam 125 g/ha, 20/1 d after first/last application, LEALOW",68.2% and 56.0% and 64.1% and 69.1%
same,% efficacy,"soybean rust disease; silthiofam 125 g/ha, 20/1 d after first/last application, LEAMID",83.3% and 78.2% and 80.4%
same,% efficacy,"soybean rust disease; silthiofam 125 g/ha, 20/1 d after first/last application, LEAUPP",90.9% and 88.9% and 100.0% and 94.4%
same,% efficacy,"soybean rust disease; silthiofam 125 g/ha, 27/8 d after first/last application, LEALOW",35.00% and 42.00% and 36.00%
same,% efficacy,"soybean rust disease; silthiofam 125 g/ha, 27/8 d after first/last application, LEAMID",77.9% and 75.0% and 78.6% and 80.3%
same,% efficacy,"soybean rust disease; silthiofam 125 g/ha, 27/8 d after first/last application, LEAUPP",89.3% and 85.7% and 93.3% and 95.2%
same,% efficacy,"soybean rust disease; silthiofam 125 g/ha, 34/15 d after first/last application, LEALOW",45.0% and 35.0% and 52.0% and 55.0%
same,% efficacy,"soybean rust disease; silthiofam 125 g/ha, 34/15 d after first/last application, LEAMID",72.0% and 67.0% and 72.7%
same,% efficacy,"soybean rust disease; silthiofam 125 g/ha, 34/15 d after first/last application, LEAUPP",90.9% and 86.2% and 92.2%
same,% efficacy,"soybean rust disease; silthiofam 250 g/ha, 14/14 d after first/last application, LEALOW",66.7% and 56.9% and 73.2% and 59.1%
same,% efficacy,"soybean rust disease; silthiofam 250 g/ha, 14/14 d after first/last application, LEAMID",81.8% and 78.6% and 70.0% and 63.6%
same,% efficacy,"soybean rust disease; silthiofam 250 g/ha, 14/14 d after first/last application, LEAUPP",0.0%
same,% efficacy,"soybean rust disease; silthiofam 250 g/ha, 20/1 d after first/last application, LEALOW",60.2% and 45.3% and 57.7% and 65.4%
same,% efficacy,"soybean rust disease; silthiofam 250 g/ha, 20/1 d after first/last application, LEAMID",68.8% and 67.3% and 78.4%
same,% efficacy,"soybean rust disease; silthiofam 250 g/ha, 20/1 d after first/last application, LEAUPP",81.8% and 83.3% and 90.0% and 100.0%
same,% efficacy,"soybean rust disease; silthiofam 250 g/ha, 27/8 d after first/last application, LEALOW",55.00% and 65.00% and 58.00% and 48.00%
same,% efficacy,"soybean rust disease; silthiofam 250 g/ha, 27/8 d after first/last application, LEAMID",61.8% and 61.1% and 68.6% and 62.1%
same,% efficacy,"soybean rust disease; silthiofam 250 g/ha, 27/8 d after first/last application, LEAUPP",82.1% and 77.1% and 83.3% and 88.1%
same,% efficacy,"soybean rust disease; silthiofam 250 g/ha, 34/15 d after first/last application, LEALOW",25.0% and 22.0% and 30.0% and 35.0%
same,% efficacy,"soybean rust disease; silthiofam 250 g/ha, 34/15 d after first/last application, LEAMID",62.0% and 58.0% and 56.8%
same,% efficacy,"soybean rust disease; silthiofam 250 g/ha, 34/15 d after first/last application, LEAUPP",67.3% and 62.1% and 54.5% and 57.8%

# Source: patent US11197479B2, “Use of silthiofam for the treatment of soybean rust” (priority 2018, dated 2021)
